≈ marks a conversion by molar mass, not a printed value. Entries after “also recorded” stand apart in the source; their conditions may differ. Where two headings read alike, the source gives them in different places. Values belong to the compound of their own block, whether it stands above or below them.
How the values were obtained:
[1] = cited from earlier work; for HLB value: hydrophilic-lipophilic balance of surfactant
[2] = system: TR146 buccal cell line; test: Permeability of Famotidine/permeation agent binary mixes, TR146 cells on Transwell inserts
[3] = system: TR146 buccal cell line; test: Permeability of Atenolol/permeation agent binary mixes (Table 11), TR146 cells on Transwell inserts; conditions: surfactants 1:1 molar ratio, PF127 and bile salt 2×CMC, citric acid 0.37-1 mg/ml
[4] = system: TR146 buccal cell line; test: Pre-formulation permeability of Carvedilol/permeation agent binary mixes, TR146 cells on Transwell inserts
[5] = system: TR146 buccal cell line; test: Pre-formulation permeability of Piroxicam & permeation agent binary mixtures, TR146 cells on Transwell inserts; conditions: for % Cumulative Permeability (n = 3) 1 min / % Cumulative Permeability (n = 3) 2 min / % Cumulative Permeability (n = 3) 5 min / % Cumulative Permeability (n = 3) 15 min / % Cumulative Permeability (n = 3) 20 min / % Cumulative Permeability (n = 3) 30 min: Piroxicam 0.35 mg in donor
[6] = Measured pH of API/permeation agent mixtures and of dispersed ODTs; type: physicochemical
[7] = Theoretical percent ionized and un-ionized API at sample pH (Henderson-Hasselbach equation); type: physicochemical; conditions: for Calculated % ionized / Calculated % unionized: Piroxicam at sample pH
[8] = system: TR146 buccal cell line; conditions: human, 1.74 mg/ml, pH 7
[9] = system: TR146 buccal cell line; test: Permeability of reconstituted Piroxicam freeze-dried ODT, TR146 cells on Transwell inserts; type: in vitro ADME
[10] = Physicochemical properties of model APIs and permeation agents (solubility, log P, pKa, HLB)
[11] = agent at 1:1 molar ratio to Piroxicam, CA after 20 and 30 minutes
[12] = agent at 1:1 molar ratio to Piroxicam, at 30 minutes
[13] = Piroxicam 0.7 mg/ml binary mixtures in distilled water, ^a after adjustment with 0.1M HCl

Compound: CN1C(C(=O)Nc2ccccn2)=C(O)c2ccccc2S1(=O)=O [Piroxicam]
pKa [1]: 5.1
water solubility [1]: 143 µg/mL (≈ 432 µM)

Compound: CCCCCCCCCCCCO[C@@H]1O[C@H](CO)[C@@H](O[C@H]2O[C@H](CO)[C@@H](O)[C@H](O)[C@H]2O)[C@H](O)[C@H]1O [DDM, Dodecyl-B-D-Maltoside]
HLB value [1]: 13.5
difference in Famotidine permeability vs control ([2]; 1:1 molar ratio, at the 20 and 30 minute marks): no significant difference
fold increase in Famotidine permeability vs control ([2]; 1:1 molar ratio, first 5 through 15 minutes): 3 fold
effect on Atenolol permeability vs control [3]: no statistically significant difference
effect on Carvedilol permeability vs control ([4]; PF127 at 2×CMC, other surfactants at 1:1 molar ratio): No significant effect
effect on Piroxicam permeability vs control [5, 11]: increased
fold increase in Piroxicam percentage cumulative permeability vs control [5, 12]: 2.6 fold
percentage cumulative permeability of Piroxicam [5, 12]: 25.60%

Compound: CC(C)NCC(O)COc1ccc(CC(N)=O)cc1 (stereo not shown) [Sample 1ATL, Atenolol]
pH ([6]; Atenolol 1.74 mg/ml binary mixes in distilled water, ^a after 0.1M NaOH): 10.58
pH ([6]; measured pH of Atenolol (1.74 mg/ml)/permeation agent mixture in distilled water): 10.58
% ionised ([7]; Atenolol at sample pH): 9.48%
% unionised ([7]; Atenolol at sample pH): 90.52%

Compound: COc1ccccc1OCCNCC(O)COc1cccc2[nH]c3ccccc3c12 (stereo not shown) [Carvedilol]
water solubility [1]: 4.44 µg/mL (≈ 10.9 µM)

Compound: C[C@H](CCC(=O)[O-])[C@H]1CC[C@H]2[C@@H]3[C@H](O)C[C@@H]4C[C@H](O)CC[C@]4(C)[C@H]3C[C@H](O)[C@]12C.O.[Na+] [sodium cholate hydrate, Sodium Cholate hydrate]
effect on permeability of Piroxicam in ODT ([9]; […] w/w, 0.5×CMC in aqueous dispersion): only slightly increased
effect on Atenolol permeability vs control [3]: no statistical difference
fold increase in Carvedilol percentage cumulative permeability vs control ([4]; at/after 30 minutes): ~2 fold
percentage cumulative permeability of Piroxicam ([5]; agent at 1×CMC, at 30 minutes): 39.52%
percentage cumulative permeability of Piroxicam ([5]; agent at 2×CMC, at 30 minutes): 14.44%
effect on Piroxicam permeability vs control ([5]; bile salt at 0.5 CMC): slight, statistically non-significant increase
fold increase in Piroxicam permeability vs control ([5]; bile salt at 1 CMC, at 30 minutes): 4 fold
effect on Piroxicam permeability vs control ([5]; bile salt at 2 CMC, pH-adjusted using citric acid): slight and statistically non-significant
fold increase in Piroxicam percentage cumulative permeability ([5]; bile salt at 2 CMC, at the first minute): 1.5 fold

Compound: CCCCCCCCCCCCOS(=O)(=O)[O-].[Na+] [SLS, Sodium Lauryl Sulfate]
effect on permeability of Piroxicam ODT vs control ([9]; 0.69% w/w and 3.49% w/w (PXM:SLS 5:1 and 1:1)): increased
permeability of 3.49% w/w sample compared to 0.69% w/w sample ([9]; Piroxicam ODT): marginally higher but statistically significant increase
HLB value [1]: 40
effect on Atenolol permeability vs control [3]: non-statistically significant increase
effect on Piroxicam permeability vs control [5, 11]: increased

Second part, led by results:

effect on Piroxicam permeability vs control [5, 11]: significantly reduced
Compound: CCCCCCCCCC(=O)O [capric acid, Capric acid]

pH [6, 13]: 5.30
Calculated % ionized [7]: 61.31%
Calculated % unionized [7]: 38.69%
% Cumulative Permeability (n = 3) 1 min [5]: 0.08%
% Cumulative Permeability (n = 3) 2 min [5]: 0.24%
% Cumulative Permeability (n = 3) 5 min [5]: 0.96%
% Cumulative Permeability (n = 3) 15 min [5]: 3.82%
% Cumulative Permeability (n = 3) 20 min [5]: 5.89%
% Cumulative Permeability (n = 3) 30 min [5]: 9.96%
Compound: CN1C(C(=O)Nc2ccccn2)=C(O)c2ccccc2S1(=O)=O [Sample 1PXM, Piroxicam]

Calculated % ionised ([7]; Famotidine at sample pH): 1.53%
Calculated % unionised ([7]; Famotidine at sample pH): 98.47%
% Cumulative Permeability (n = 3) 1 min ([2]; Famotidine […], 0.5 ml in donor, 1 min): 0.32%
% Cumulative Permeability (n = 3) 2 min ([2]; Famotidine […], 0.5 ml in donor, 2 min): 0.84%
% Cumulative Permeability (n = 3) 5 min ([2]; Famotidine […], 0.5 ml in donor, 5 min): 2.09%
% Cumulative Permeability (n = 3) 15 min ([2]; Famotidine […], 0.5 ml in donor, 15 min): 7.81%
% Cumulative Permeability (n = 3) 20 min ([2]; Famotidine […], 0.5 ml in donor, 20 min): 11.76%
% Cumulative Permeability (n = 3) 30 min ([2]; Famotidine […], 0.5 ml in donor, 30 min): 19.98%
Compound: NC(N)=Nc1nc(CSCCC(N)=NS(N)(=O)=O)cs1 [Sample 1FAM, Famotidine]

pH ([6]; Carvedilol 1.74 mg/ml binary mixes in water, ^a after 0.1M NaOH, ^b after 0.1M HCL): 7
Calculated % ionised ([7]; Carvedilol at sample pH): 86.32%
Calculated % unionised ([7]; Carvedilol at sample pH): 13.68%
% Cumulative Permeability (n = 3) 1 min ([8]; 1 min): 0.02%
% Cumulative Permeability (n = 3) 2 min ([8]; 2 min): 0.03%
% Cumulative Permeability (n = 3) 5 min ([8]; 5 min): 0.03%
% Cumulative Permeability (n = 3) 15 min ([8]; 15 min): 0.10%
% Cumulative Permeability (n = 3) 20 min ([8]; 20 min): 0.13%
% Cumulative Permeability (n = 3) 30 min ([8]; 30 min): 0.18%
Compound: COc1ccccc1OCCNCC(O)COc1cccc2[nH]c3ccccc3c12 (stereo not shown) [Sample 1CAV, Carvedilol]

fold increase in Famotidine permeability vs control ([2]; 1:1 molar ratio, time not stated): 2 fold
Compound: Sorbitan monooleate [Span 80]
effect on Piroxicam permeability vs control [5, 11]: reduce the Piroxicam permeability significantly

pKa [10]: ≥ 5
effect on Piroxicam permeability ([5]; 1:3 and 1:6 molar ratios Piroxicam to counterion): no significant enhancement
Compound: NCCCC[C@H](N)C(=O)O [lysine, Lysine]

effect on Piroxicam permeability vs control [5, 11]: increased
fold increase in Piroxicam percentage cumulative permeability vs control [5, 12]: 2.1 fold
percentage cumulative permeability of Piroxicam [5, 12]: 20.82%
Compound: POE-(4)-sorbitan monolaurate [Tween 21]
effect on Famotidine permeability vs control [2]: Neither PF127 nor Tween 21 showed an enhancement; also recorded: no increase in Famotidine permeability was observed

pH [6, 13]: 6.64
Calculated % ionized [7]: 97.20%
Calculated % unionized [7]: 2.80%
% Cumulative Permeability (n = 3) 1 min [5]: 0.13%
% Cumulative Permeability (n = 3) 2 min [5]: 0.41%
% Cumulative Permeability (n = 3) 5 min [5]: 1.60%
% Cumulative Permeability (n = 3) 15 min [5]: 5.88%
% Cumulative Permeability (n = 3) 20 min [5]: 7.91%
% Cumulative Permeability (n = 3) 30 min [5]: 11.24%
Compound: CN1C(C(=O)Nc2ccccn2)=C(O)c2ccccc2S1(=O)=O [Sample 3PXM, Piroxicam]

Reference: patent US20240374524A1, “INCREASING PERMEATION FOR PRE-GASTRIC ABSORPTION OF ACTIVE PHARMACEUTICAL INGREDIENTS” (Catalent U.K. Swindon Zydis Limited, priority 2023, published 2024)
